# Measurements published in ChEMBL document CHEMBL5329192, “Synthesis, biological activities, and future perspectives of steroidal monocyclic pyridines” (RSC Med Chem, 2023).
# Tests used:
# PC-3 [1] = experiment: Cytotoxicity against human PC-3 cells assessed as reduction in cell viability incubated for 48 hrs by SRB assay; format: toxicity, cell-based; settings: PC-3, 48 h
# [2] = Cytotoxicity against human RWPE-1 cells assessed as reduction in cell viability incubated for 48 hrs by SRB assay; format: toxicity, cell-based
# ECa-109 cell line [3] = experiment: Antiproliferative activity against human EC109 cells assessed as reduction in cell proliferation incubated for 72 hrs by MTT assay; format: functional, cell-based; settings: ECa-109, 72 h
# MGC-803 [4] = experiment: Antiproliferative activity against human MGC-803 cells assessed as cell growth inhibition measured after 48 hrs by MTT assay; format: functional, cell-based; settings: MGC-803, 48 h
# EC9706 = experiment: Antiproliferative activity against human EC9706 assessed as reduction in cell proliferation incubated for 72 hrs by MTT assay; format: functional, cell-based; settings: EC9706, 72 h
# SK-OV-3 = experiment: Antiproliferative activity against human SK-OV-3 cells assessed as reduction in cell growth incubated for 48 hrs by MTT assay; format: functional, cell-based; settings: SK-OV-3, 48 h
# MCF7 [5] = experiment: Antiproliferative activity against human MCF7 cells assessed as reduction in cell growth incubated for 48 hrs by MTT assay; format: functional, cell-based; settings: MCF7, 48 h
# MCF7 [6] = experiment: Cytotoxicity against human MCF7 cells assessed as reduction in cell viability incubated for 72 hrs by MTT assay; format: functional, cell-based; settings: MCF7, 72 h
# MGC-803 [7] = experiment: Cytotoxicity against human MGC-803 cells assessed as reduction in cell viability incubated for 72 hrs by MTT assay; format: functional, cell-based; settings: MGC-803, 72 h
# PC-3 [8] = experiment: Cytotoxicity against human PC-3 cells assessed as reduction in cell viability incubated for 72 hrs by MTT assay; format: functional, cell-based; settings: PC-3, 72 h
# HepG2 = experiment: Antiproliferative activity against human HepG2 cells assessed as reduction in cell growth incubated for 48 hrs by MTT assay; format: functional, cell-based; settings: HepG2, 48 h
# HeLa [9] = experiment: Antiproliferative activity against human HeLa cells assessed as reduction in cell growth incubated for 48 hrs by MTT assay; format: functional, cell-based
# A549 = experiment: Cytotoxicity against human A549 cells assessed as reduction in cell viability incubated for 72 hrs by MTT assay; format: functional, cell-based; settings: A549, 72 h
# ECa-109 cell line [10] = experiment: Cytotoxicity against human Eca-109 cells assessed as reduction in cell viability incubated for 72 hrs by MTT assay; format: functional, cell-based; settings: ECa-109, 72 h
# Rattus norvegicus [11] = experiment: Anti-anabolic activity against albino rat assessed as mass gain of levator ani-muscle at 0.1 mg/kg, sc administered for 7 days; format: functional; settings: time 7 day
# Rattus norvegicus [12] = experiment: Anti-androgen activity against albino rat assessed as mass gain of prostate gland at 0.1 mg/kg, sc administered for 7 days; format: functional; settings: time 7 day
# [13] = Acute toxicity in ip dosed albino rat administered twice daily for 14 days; format: organism-based; settings: in vivo, time 14 day
# Rattus norvegicus [14] = species on record: Rattus norvegicus; experiment: Ratio of anti-anabolic activity against albino rat assessed as reduction in mass of levator ani-muscle to anti-androgenic activity against albino rat assessed as mass gain of prostate gland; format: functional
# HeLa [15] = experiment: Antiproliferative activity against human HeLa cells assessed as reduction in cell viability by MTT assay; format: functional, cell-based
# [16] = Antiproliferative activity against human […] cells assessed as reduction in cell viability by MTT assay; format: functional, cell-based
compound,measurement,setting,value
CCOC(=O)c1cc2c(nc1C(=O)OCC)[C@@]1(C)CC[C@H]3[C@@H](CC=C4C[C@@H](OC(C)=O)CC[C@@]43C)[C@@H]1C2,IC50,PC-3 [1],100 µM
same,IC50 at 48 h,[2],218 µM
CCOC(=O)c1cc2c(nc1CCl)[C@@]1(C)CC[C@H]3[C@@H](CC=C4C[C@@H](OC(C)=O)CC[C@@]43C)[C@@H]1C2,EC50,ECa-109 cell line [3],15.5 µM
same,IC50,MGC-803 [4],9.84 µM
same,IC50,EC9706,37.6 µM
COc1ccc(-c2cc([C@H]3CC[C@H]4[C@@H]5CC=C6C[C@@H](O)CC[C@]6(C)[C@H]5CC[C@]34C)nc(N)c2C#N)cc1,IC50,SK-OV-3,32.5 µM
same,IC50,MCF7 [5],101 µM
same,IC50,MCF7 [6],51.1 µM
same,IC50,MGC-803 [7],57.8 µM
same,IC50,PC-3 [8],5.7 µM
same,IC50,HepG2,34.8 µM
same,IC50,HeLa [9],40.3 µM
same,IC50,A549,> 64 µM
same,IC50,ECa-109 cell line [10],> 64 µM
CCOC1(OCC)NC(c2ccc(F)cc2)=C2C[C@H]3[C@@H]4CC[C@H]5C[C@@H](O)CC[C@]5(C)[C@H]4CC[C@]3(C)C2=C1C#N,Activity,Rattus norvegicus [11],0.622 g
same,Activity,Rattus norvegicus [12],0.432 g
same,LD50 at 336 h,[13],4900 mg/kg
same,Ratio,Rattus norvegicus [14],1.44
CCOC(=O)c1cc2c(cn1)C[C@H]1[C@@H]3CC=C4C[C@@H](OC(C)=O)CC[C@]4(C)[C@H]3CC[C@]21C,IC50,HeLa [15],≥ 100 µM
same,IC50,[16],≥ 100 µM
C[C@]12CC[C@H](O)C[C@@H]1CC[C@@H]1[C@@H]2CC[C@]2(C)c3c(c(-c4ccccc4)[nH]c(=O)c3C#N)C[C@@H]12,Activity,Rattus norvegicus [12],0.234 g
same,LD50 at 336 h,[13],4920 mg/kg
same,Ratio,Rattus norvegicus [14],11.3
COC(=O)c1cc2c(nc1C)[C@@]1(C)CC[C@H]3[C@@H](CC=C4C[C@@H](OC(C)=O)CC[C@@]43C)[C@@H]1C2,EC50,ECa-109 cell line [3],17.1 µM
same,IC50,MGC-803 [4],16.7 µM
same,IC50,EC9706,26.5 µM
C[C@]12CC[C@H](O)C[C@@H]1CC[C@@H]1[C@@H]2CC[C@]2(C)c3c(c(-c4ccc(Cl)cc4)[nH]c(=O)c3C#N)C[C@@H]12,Activity,Rattus norvegicus [11],0.314 g
same,Activity,Rattus norvegicus [12],0.234 g
same,LD50 at 336 h,[13],4920 mg/kg
same,Ratio,Rattus norvegicus [14],1.34
C[C@]12CC[C@H](O)C[C@@H]1CC[C@@H]1[C@@H]2CC[C@]2(C)c3c(C#N)c(S)nc(-c4ccc(Cl)cc4)c3C[C@@H]12,Activity,Rattus norvegicus [11],0.48 g
same,Activity,Rattus norvegicus [12],0.345 g
same,LD50 at 336 h,[13],4910 mg/kg
same,Ratio,Rattus norvegicus [14],1.39
C[C@]12CCC(=O)C[C@@H]1CC[C@@H]1[C@@H]2CC[C@]2(C)[C@@H](O)CC[C@@H]12 [STANOLONE],Activity,Rattus norvegicus [11],0.18 g
same,Activity,Rattus norvegicus [12],0.2 g
same,LD50 at 336 h,[13],3410 mg/kg
CCCc1cc2c(cn1)C[C@H]1[C@@H]3CC=C4C[C@@H](OC(C)=O)CC[C@]4(C)[C@H]3CC[C@]21C,IC50,HeLa [15],≥ 100 µM
same,IC50,[16],≥ 100 µM
CC(=O)O[C@H]1CC[C@@]2(C)C(=CC[C@@H]3[C@@H]2CC[C@]2(C)c4nc(C)c(C(C)=O)cc4C[C@@H]32)C1,EC50,ECa-109 cell line [3],14.3 µM
same,IC50,MGC-803 [4],10.3 µM
same,IC50,EC9706,30.6 µM
CCOC(=O)c1cc2c(nc1C)[C@@]1(C)CC[C@H]3[C@@H](CC=C4C[C@@H](OC(C)=O)CC[C@@]43C)[C@@H]1C2,EC50,ECa-109 cell line [3],16.1 µM
same,IC50,MGC-803 [4],12.2 µM
same,IC50,EC9706,34.7 µM
C[C@]12CC[C@H]3[C@@H](CC=C4C[C@@H](O)CC[C@@]43C)[C@@H]1CC[C@@H]2c1cc(-c2ccccc2)c(C#N)c(N)n1,IC50,SK-OV-3,13.1 µM
same,IC50,MCF7 [5],15.5 µM
same,IC50,MCF7 [6],16 µM
same,IC50,MGC-803 [7],10.9 µM
same,IC50,PC-3 [8],3.2 µM
same,IC50,HepG2,23.8 µM
same,IC50,HeLa [9],14.6 µM
same,IC50,A549,43.2 µM
same,IC50,ECa-109 cell line [10],> 64 µM
C[C@]12CC[C@H](O)C[C@@H]1CC[C@@H]1[C@@H]2CC[C@]2(C)c3c(C#N)c(S)nc(-c4ccccc4)c3C[C@@H]12,Activity,Rattus norvegicus [11],0.577 g
same,Activity,Rattus norvegicus [12],0.421 g
same,LD50 at 336 h,[13],4910 mg/kg
same,Ratio,Rattus norvegicus [14],1.37
CCOC(=O)c1cc2c(nc1C(=O)OCC)[C@@]1(C)CC[C@H]3[C@@H](CC=C4C[C@@H](O)CC[C@@]43C)[C@@H]1C2,IC50,PC-3 [1],95.4 µM
same,IC50 at 48 h,[2],501 µM
CCOc1nc(-c2ccc(F)cc2)c2c(c1C#N)[C@@]1(C)CC[C@H]3[C@@H](CC[C@H]4C[C@@H](O)CC[C@@]43C)[C@@H]1C2,Activity,Rattus norvegicus [11],0.191 g
same,Activity,Rattus norvegicus [12],0.123 g
same,LD50 at 336 h,[13],4890 mg/kg
same,Ratio,Rattus norvegicus [14],1.55
COc1cccc2c1C(=O)c1c(O)c3c(c(O)c1C2=O)C[C@@](O)(C(=O)CO)C[C@@H]3O[C@H]1C[C@H](N)[C@H](O)[C@H](C)O1 [DOXORUBICIN],IC50,[16],9 µM
C[C@]12CC[C@H]3[C@@H](CCC4=CC(=O)CC[C@@]43C)[C@@H]1CC[C@@H]2O [TESTOSTERONE],Activity,Rattus norvegicus [11],0.204 g
same,Activity,Rattus norvegicus [12],0.76 g
same,LD50 at 336 h,[13],2750 mg/kg
same,Ratio,Rattus norvegicus [14],0.27
CC(=O)O[C@H]1CC[C@@]2(C)C(=CC[C@@H]3[C@@H]2CC[C@]2(C)c4cc(-c5ccccc5)ncc4C[C@@H]32)C1,IC50,HeLa [15],≥ 100 µM
same,IC50,[16],≥ 100 µM
C[C@]12CC[C@H](O)CC1=CC[C@@H]1[C@@H]2CC[C@]2(C)C(c3cccnc3)=CC[C@@H]12 [ABIRATERONE],IC50,PC-3 [1],91 µM
same,IC50 at 48 h,[2],645 µM
same,IC50,PC-3 [8],17.2 µM
CC(=O)O[C@H]1CC[C@@]2(C)C(=CC[C@@H]3[C@@H]2CC[C@]2(C)c4cc(-c5ccc(C)cc5)ncc4C[C@@H]32)C1,IC50,HeLa [15],≥ 100 µM
same,IC50,[16],≥ 100 µM
CCCCc1cc2c(cn1)C[C@H]1[C@@H]3CC=C4C[C@@H](OC(C)=O)CC[C@]4(C)[C@H]3CC[C@]21C,IC50,HeLa [15],≥ 100 µM
same,IC50,[16],≥ 100 µM
O=c1[nH]cc(F)c(=O)[nH]1 [FLUOROURACIL],IC50,SK-OV-3,25 µM
same,IC50,MCF7 [5],25.4 µM
same,IC50,MCF7 [6],10 µM
same,IC50,MGC-803 [7],15.7 µM
same,EC50,ECa-109 cell line [3],21.1 µM
same,IC50,MGC-803 [4],26.4 µM
same,IC50,PC-3 [8],6.7 µM
same,IC50,HepG2,66.8 µM
same,IC50,EC9706,2.45 µM
same,IC50,HeLa [9],18.8 µM
same,IC50,A549,5.7 µM
CCOC1(OCC)NC(c2ccccc2)=C2C[C@H]3[C@@H]4CC[C@H]5C[C@@H](O)CC[C@]5(C)[C@H]4CC[C@]3(C)C2=C1C#N,Activity,Rattus norvegicus [11],0.486 g
same,Activity,Rattus norvegicus [12],0.345 g
same,LD50 at 336 h,[13],4900 mg/kg
same,Ratio,Rattus norvegicus [14],1.41
CC(=O)O[C@H]1CC[C@@]2(C)C(=CC[C@@H]3[C@@H]2CC[C@]2(C)c4cc(-c5ccc(F)cc5)ncc4C[C@@H]32)C1,IC50,HeLa [15],≥ 100 µM
same,IC50,[16],≥ 100 µM
CCOc1nc(-c2ccccc2)c2c(c1C#N)[C@@]1(C)CC[C@H]3[C@@H](CC[C@H]4C[C@@H](O)CC[C@@]43C)[C@@H]1C2,Activity,Rattus norvegicus [11],0.494 g
same,Activity,Rattus norvegicus [12],0.321 g
same,LD50 at 336 h,[13],4890 mg/kg
same,Ratio,Rattus norvegicus [14],1.54
CCOC(=O)c1cc2c(nc1-c1ccccc1)[C@@]1(C)CC[C@H]3[C@@H](CC=C4C[C@@H](O)CC[C@@]43C)[C@@H]1C2,IC50,PC-3 [1],197 µM
same,IC50 at 48 h,[2],189 µM
CCOC(=O)c1cc2c(nc1-c1ccccc1)[C@@]1(C)CC[C@H]3[C@@H](CC=C4C[C@@H](OC(C)=O)CC[C@@]43C)[C@@H]1C2,IC50,PC-3 [1],437 µM
same,IC50 at 48 h,[2],375 µM
